Assay results taken from patent US8158577B2, “Modulation of cartilage homeostasis by active domains of cell binding extracellular matrix molecules” (priority 2004, dated 2012).

Key:
K105 cells [1] = test: Adhesion of K105 cells to collagen type II in the presence of synthetic peptide (FIG. 5C-5D); format: cell-based, human; details: peptide 250 μg/ml, 1 hour at 37° C.
Protocol: Tissue culture 48-wells dishes (Nunclon, Nunc, Denmark) were coated overnight with 5 μg/ml chondroadherin in 4M Guanidine-HCl, 50 mM sodium acetate, pH 5.8, or for native protein in PBS. Alternatively coating was with 5 μg/ml collagen type II in PBS followed by after-coating with 0.5% BSA in PBS for 3 hours. Collagen type II was isolated from bovine nasal cartilage by pepsin digestion (11). Bacterially expressed chondroadherin was isolated as described above. Recombinant chondroadherin expressed in EBNA cell was cloned and purified as described elsewhere (8).
(§1) To test cell binding, the chondrosarcoma cells or bovine chondrocytes were suspended in PBS containing 0.1% BSA, 25 U/ml collagenase and added to the wells (50,000/well), in the absence or presence of various peptide pools or the synthetic peptides (200, 100, 50, 25, 12.5 μg/ml). Non-adherent cells were removed after 1 hour and adhesion was determined by measuring lysosomal N-acetylglucosaminidase (12). Adhesion and spreading was visualized by light microscopy. […]
Tissue culture dishes were coated with 5 μg/ml chondroadherin expressed in E. coli or collagen type II and blocked for non-specific binding with BSA. […] Spreading was visualized by light microscopy, and adhesion was determined by analyzing lysosomal hexosaminidase. Adhesion is expressed as number of cells where the data represent the average of two wells. […]

bovine chondrocytes = test: Adhesion of bovine chondrocytes to human chondroadherin with or without cell binding peptides (FIG. 6); format: cell-based; details: peptide 250 μg/ml, 1 hour at 37° C., 100,000 cells/well
Protocol: Bovine chondrocytes were isolated by collagenase (CLS1; Worthington Biochemical Corp., Lakewood, N.J.) digestion of articular cartilage from 4-6 month old calves as described (10). Briefly, cartilage slices were digested for 16 hours with collagenase in EBSS (Earle's balanced salt solution, GIBCO BRL Gaithersburg, Md.). The cells were filtered through a 100 μm nylon filter, washed three times in PBS containing 0.2% BSA (SERVA).
as §1
Tissue culture dishes were coated with 5 μg/ml chondroadherin expressed in E. coli or collagen type II and blocked for non-specific binding with BSA. […] Adhesion was determined by analyzing lysosomal hexosaminidase. Adhesion is expressed as number of cells, 100,000 cells/well was seeded. […]

K105 cells [2] = test: Effect on K105 cells already adherent to chondroadherin, light microscopy time study (FIG. 7, 9, 10); format: cell-based, human; details: peptide 250 μg/ml added after 30 min adhesion; light microscopy after 1, 3 and 20 hours
Protocol: To test cell binding, the chondrosarcoma cells or bovine chondrocytes were suspended in PBS containing 0.1% BSA, 25 U/ml collagenase and added to the wells (50,000/well), in the absence or presence of various peptide pools or the synthetic peptides (200, 100, 50, 25, 12.5 μg/ml). Non-adherent cells were removed after 1 hour and adhesion was determined by measuring lysosomal N-acetylglucosaminidase (12). Adhesion and spreading was visualized by light microscopy. In the time studies, k105 cells were allowed to adhere for 30 minutes, unbound cells were removed and medium without serum supplemented with or without peptides (250 μg/ml), β1 integrin antibody (clone P4C10, Gibco BRL), EDTA (5 mM) was added. Cell morphology was visualized by light microscopy after 1, 3 and 20 hours.
(§2) Tissue culture dishes were coated with 5 μg/ml chondroadherin expressed in E. coli and blocked for non-specific binding with BSA. The k105 cells were suspended in PBS containing 0.1% BSA, and added to the wells (50,000/well). Nonadherent cells were removed after 30 min by washing, plain medium without serum with or without peptides (250 μg/ml) was added and bound cells were visualized by light microscopy after 1, 3 and 20 hours.
as §2, with “The” for “The k105”, “hours. […] The activity for integrin binding is located in the C-terminal eight residues of the sequence involving the WLEAK (SEQ ID No. 1) sequence.” for “hours.”
as §2, with “washing, peptide, anti β1 antibody, 5 mM EDTA or” for “washing,”, “serum” for “serum with or without peptides (250 μg/ml)”, “1 and” for “1,”, “3” for “3 and 20”

K105 cells [3] = test: Adhesion of K105 cells to the coated cell binding peptides (FIG. 8); format: cell-based, human
Protocol: Tissue culture dishes were coated with 33 μg/ml (20 µM) peptide solution. The cells (50,000/well) were suspended in PBS containing 0.1% BSA, 25 U/ml collagenase and added to the wells in the presence or absence of synthetic peptide (250 μg/ml) and allowed to adhere for 1 hour at 37° C. Nonadherent cells were removed by washing. Spreading was visualized by light microscopy.

H-CKFPTKRSKKAGRH-OH [SEQ ID No. 7]
k105 cell adhesion to collagen type II in the presence of peptide (K105 cells [1]): not significantly affected | bovine chondrocyte adhesion to chondroadherin in the presence of peptide (bovine chondrocytes): increased | spreading, migration and aggregation of k105 cells adherent to chondroadherin (K105 cells [2]): spreading and migration increased | adhesion and shape of k105 cells plated on the peptide (K105 cells [3]; dishes coated with 33 μg/ml peptide, 1 hour at 37° C.): adhere and spread | inhibition of k105 adhesion to the coated peptide by the same peptide in solution (K105 cells [3]; peptide in solution 250 μg/ml): unable to inhibit adhesion
